# Assay results as given in ChEMBL document CHEMBL1144603, “Synthesis and biological evaluation of new taxoids derived from 2-deacetoxytaxinine J” (Bioorg Med Chem Lett, 2007).
# The source made the active and inactive calls. The rule behind the calls is not given here.
# Assays:
# MCF7 [1] = assay: MDR-reversal in paclitaxel-resistant […] cell growth assay; assay type: functional, cell-based; conditions: Homo sapiens
# MCF7 [2] = assay: MDR-reversal in paclitaxel-resistant […] cell growth assay as reduction of IC50 at 1uM; assay type: functional, cell-based, Homo sapiens
# MCF7 [3] = assay: MDR-reversal in paclitaxel-resistant […] cell growth assay as reduction of IC50 at 0.1uM; assay type: functional, cell-based, Homo sapiens
Structure (SMILES),Activity (MCF7 [1]),percent reduction of paclitaxel IC50 (MCF7 [2]) [%],IC50 reduction (MCF7 [3]) [%]
C=C1[C@@H](OC(=O)/C=C/c2ccccc2)C[C@H](OC(C)=O)[C@]2(C)[C@@H]1C[C@@H]1C[C@H](OC(=O)[C@@H]3OC(c4ccc(OC)cc4OC)N(C(=O)OC(C)(C)C)[C@H]3CC(C)C)C(C)=C([C@@H](OC(C)=O)[C@@H]2OC(C)=O)[C@@H]1C (some centres undefined),inactive,,
C=C1[C@H]2C[C@@H]3C[C@H](OC(=O)/C=C/c4ccccc4)C(C)=C([C@@H](OC(C)=O)[C@H](OC(C)=O)[C@]2(C)[C@@H](OC(C)=O)C[C@@H]1O)[C@@H]3C,,92,35
C=C1[C@H]2C[C@@H]3C[C@H](O)C(C)=C([C@@H](OC(C)=O)[C@H](OC(C)=O)[C@]2(C)[C@@H](OC(C)=O)C[C@@H]1O)[C@@H]3C,,47,
C=C1[C@H]2C[C@@H]3C[C@H](OC(=O)c4ccccc4)C(C)=C([C@@H](OC(C)=O)[C@H](OC(C)=O)[C@]2(C)[C@@H](OC(C)=O)C[C@@H]1O)[C@@H]3C,,95,67
"C=C1[C@@H](O[Si](CC)(CC)CC)C[C@H](OC(C)=O)[C@]2(C)[C@@H]1C[C@@H]1C[C@H](OC(C)=O)C(C)=C(C1C)[C@@H](OC(C)=O)[C@@H]2OC(C)=O (single isomer, unassigned)",,92,
"C=C1[C@@H](OC(=O)c2ccccc2)C[C@H](OC(C)=O)[C@]2(C)[C@@H]1C[C@@H]1C[C@H](OC(C)=O)C(C)=C(C1C)[C@@H](OC(C)=O)[C@@H]2OC(C)=O (single isomer, unassigned)",inactive,,
C=C1[C@H]2C[C@@H]3C[C@H](OC(=O)[C@H](O)[C@H](CC(C)C)NC(=O)OC(C)(C)C)C(C)=C([C@@H](OC(C)=O)[C@H](OC(C)=O)[C@]2(C)[C@@H](OC(C)=O)C[C@@H]1O)[C@@H]3C,,93,
CC(=O)O[C@H]1C[C@H]2C[C@@H]3[C@]4(CO4)[C@@H](OC(=O)/C=C/c4ccccc4)C[C@H](OC(C)=O)[C@@]3(C)[C@@H](OC(C)=O)[C@H](OC(C)=O)C(=C1C)[C@@H]2C,,85,
C=C1[C@H]2C[C@@H]3C[C@H](OC(=O)[C@@H](O)Cc4ccccc4)C(C)=C([C@@H](OC(C)=O)[C@H](OC(C)=O)[C@]2(C)[C@@H](OC(C)=O)C[C@@H]1O)[C@@H]3C,,89,24
CC(=O)O[C@H]1C[C@H](OC(=O)/C=C/c2ccccc2)[C@@]2(CO2)[C@H]2C[C@@H]3C[C@H](OC(C)=O)[C@]4(C)O[C@@]4([C@@H]3C)[C@@H](OC(C)=O)[C@H](OC(C)=O)[C@]12C,,70,2
C=C1[C@@H](OC(=O)/C=C/c2ccccc2)C[C@H](OC(C)=O)[C@]2(C)[C@@H]1C[C@@H]1C[C@H](OC(C)=O)[C@]3(C)O[C@@]3([C@@H]1C)[C@@H](OC(C)=O)[C@@H]2OC(C)=O,,92,22
C=C1[C@@H](OC(=O)[C@@H]2OC(c3ccc(OC)cc3OC)N(C(=O)OC(C)(C)C)[C@H]2CC(C)C)C[C@H](OC(C)=O)[C@]2(C)[C@@H]1C[C@@H]1C[C@H](OC(C)=O)C(C)=C([C@@H](OC(C)=O)[C@@H]2OC(C)=O)[C@@H]1C (some centres undefined),inactive,,
C=C1[C@@H](OC(=O)/C=C/c2ccccc2)C[C@H](OC(C)=O)[C@]2(C)[C@@H]1C[C@@H]1C[C@H](OC(=O)/C=C/c3ccccc3)C(C)=C([C@@H](OC(C)=O)[C@@H]2OC(C)=O)[C@@H]1C,inactive,,
C=C1[C@@H](OC(=O)/C=C/c2ccccc2)C[C@H](OC(C)=O)[C@]2(C)[C@@H]1C[C@@H]1C[C@H](OC(=O)C(O)[C@@H](CC(C)C)NC(=O)OC(C)(C)C)C(C)=C([C@@H](OC(C)=O)[C@@H]2OC(C)=O)[C@@H]1C (some centres undefined),inactive,,
